Measurements as given in patent publication US4148907A, “Stereoisomers of 1-(1'benzyl-2'pyrryl)-2-di-sec.-butylaminoethanol and pharmaceutical compositions comprising same” (Etablissement Viridis, priority 1976, dated 1979).

How the values were obtained:
[1] = Therapeutic index (LD50/ED50 tail flick); assay type: in vivo; conditions: ratio of LD50/ED50, ED50 from the tail flick test
Description: The superiority of new Compounds A and B is also evident from the therapeutic indexes which have been calculated as a ratio of LD50 /ED50' taking as the ED50 value that which is obtained by the tail flick test.

[2] = compared with other isomers, racemic compound or the disclosed class; cited from earlier work
rats [3] = conditions: comparison values given under identical conditions (Pharmacological Research Communications 8, 111 (1976)); cited from earlier work
[4] = Acute toxicity (LD50), method of Litchfield and Wilcoxson; conditions: in vivo, ip
Description: The acute toxicity values (LD50) have been determined by the method of Litchfield and Wilcoxson (J. Pharmacol. 1949, 96, 99) both for the new compounds of this invention and for VIMINOLO and the "R2 " Compound.

mice [5] = assay: Hot plate test on mice (analgesic activity, ED50); assay type: in vivo; conditions: Mus musculus, sc
Description: (§1) [α]436^20 (in methanol c= 2%): -48° C.±3° C. The analgesic activity (ED50) of isomers A and B has been determined via the hot plate test on mice (N/.B Eddy et Coll. J. Pharmacol. 98, 121, 1950) and via the "tail flick" test on rats (D'Amour and Smith; J. Pharmacol. 1941, 72, 74). The resulting values are set forth in the following Table and compared with the values given under identical conditions for VIMINOLO and the "R2 " Compound referred to hereinabove (Pharmacological Research Communications 8, 111 (1976)).

rats [6] = assay: "tail flick" test on rats (analgesic activity, ED50); assay type: in vivo; conditions: Rattus norvegicus, sc
Description: as §1

mice [7] = conditions: comparison values given under identical conditions (Pharmacological Research Communications 8, 111 (1976)); cited from earlier work
[8] = Analgesic activity, comparison in words (hot plate and tail flick data); assay type: in vivo; conditions: compared with VIMINOLO
Description: as §1

Row | SMILES | T.I. (therapeutic index) [1] | analgesic activity (prior patents) [2] | ED50 Tail Flick s.c. (rats [3]) | LD50 [4] | ED50 (mice [5]) | ED50 (rats [6]) | ED50 hot plate s.c (mice [7]) | analgesic activity relative to VIMINOLO [8]
1 | CCC(C)N(CC(O)c1cccn1Cc1ccccc1Cl)C(C)CC (stereo not drawn) [VIMINOLO, 1-[1'(o-chlorobenzyl)-2'-pyrryl]-2-di-sec.-butylaminoethanol] | 13.36 | most active compound within the disclosed class of aminoethanols | 12.5 mg/kg | 167 mg/kg | – | – | – | –
2 | CC[C@@H](C)N(CC(O)c1cccn1Cc1ccccc1F)[C@H](C)CC (single isomer, unassigned) [Isomer A] | 872 | – | – | 384 mg/kg | 0.65 mg/kg | 0.44 mg/kg | – | –
3 | CC[C@@H](C)N(CC(O)c1cccn1Cc1ccccc1C(F)(F)F)[C@H](C)CC (single isomer, unassigned) [Isomer B] | 942 | – | – | 358 mg/kg | 0.6 mg/kg | 0.38 mg/kg | – | –
4 | CCC(C)N(CC(O)c1cccn1Cc1ccccc1Cl)C(C)CC (single isomer, unassigned) ["R2 " Compound] | 324 | much more active than the other isomers and also, more active than the corresponding racemic compound "VIMINOLO" | 0.71 mg/kg | 230 mg/kg | – | – | 1.15 mg/kg | surprisingly more active than VIMINOLO
